Data taken from patent US9107408B2, “Plant disease controlling composition and method for controlling plant disease” (SUMITOMO CHEMICAL COMPANY, LIMITED, priority 2010, dated 2015).
Read-outs that look alike come from different tables or passages of the source.

Test system: gray mold fungus (Botrytis cinerea)
Experiment: Cucumber leaf disk preventive test against gray mold fungus
Assay type: in vivo
Conditions: for pest or weed control at 0.5 ppm / pest or weed control at 5 ppm: Botrytis cinerea, foliar, 96 h, read-out: preventive value (%)
Description: True leaf of cucumber is punched out with cork borer to 13 mm in diameter to prepare a leaf disk. In 24 well microwell plate that is dispensed with 1 ml 0.8% water agar, the leaf disk is placed such that the upper side of the leaf is in an upward direction. Thereto is added 20 micro liter a testing solution prepared by mixing a dimethyl sulfoxide solution of the present compound (racemate) and a dimethyl sulfoxide solution of tebuconazole to a predetermined concentration to treat the leaf disk.
After confirming that the testing medical solution is dried, conidium of gray mold fungus (Botrytis cinerea) is suspended into potato dextrose broth (DIFCO) in a density of about 10^5 conidium/mL and is then subjected to a spray inoculation. After leaving to stand the leaf disk in a growth chamber set up at 15° C. for four days, an onset area on the leaf is measured and then calculated an onset area rate (hereinafter, referred to as an onset area rate of treated group).
The same operation is carried out with 20 micro liter water instead of 20 micro liter a testing medicine solution to calculate an onset area rate (hereinafter, referred to an onset area rate of non-treated group).
A preventive value is calculated from the above onset area rate of treated group and the onset area rate of non-treated group by the following equation: Preventive value (%)=100×(A−B)/A
A: an onset area rate of treated group
B: an onset area rate of non-treated group
The same operations as described in Test Example 1 are carried out with triadimenol, bitertanol, oxpoconazole fumarate, cyazofamid, pefurazoate, triflumizole, or hymexazol instead of tebuconazole, so as to calculate respective preventive values.
Also for comparison, the same operations as described in Test Example 1 are carried out with the exception that the testing medicine solution is substituted with a predetermined concentration of each dimethyl sulfoxide solution of the present compound (racemate), triadimenol, bitertanol, oxpoconazole fumarate, cyazofamid, pefurazoate, triflumizole, or hymexazol, so as to calculate respective preventive values.
For comparison, the same operations as described in Test Example 1 are carried out with the exception that the testing medicine solution is substituted with a predetermined concentration of a dimethyl sulfoxide solution of tebuconazole, so as to calculate a preventive value.

[1] = azole compound alone 0.5 ppm, cucumber leaf disk, 15° C., four days
[2] = azole compound alone 5.0 ppm, cucumber leaf disk, 15° C., four days

SMILES | pest or weed control at 0.5 ppm [1] [%] | pest or weed control at 5 ppm [2] [%] | also measured
C=CCCCOC(=O)C(CC)N(Cc1ccco1)C(=O)n1ccnc1 (stereo not shown) [pefurazoate] | – | – | pest or weed control at 0.5 ppm: 44%; pest or weed control at 5 ppm: 53%
CC(C)(C)C(O)(CCc1ccc(Cl)cc1)Cn1cncn1 (stereo not shown) [tebuconazole] | 40 | 54 | –
CC(C)(C)C(O)C(Oc1ccc(-c2ccccc2)cc1)n1cncn1 (stereo not shown) [bitertanol] | 45 | 56 | –
CC1(C)COC(C)(CCCc2ccc(Cl)cc2)N1C(=O)n1ccnc1.CC1(C)COC(C)(CCCc2ccc(Cl)cc2)N1C(=O)n1ccnc1.O=C(O)/C=C/C(=O)O (stereo not shown) [oxpoconazole fumarate] | – | – | preventive value (%) [1]: 49%; preventive value (%) [2]: 59%
Cc1ccc(-c2c(Cl)nc(C#N)n2S(=O)(=O)N(C)C)cc1 [cyazofamid] | 10 | 15 | –
CCCOC/C(=N\c1ccc(Cl)cc1C(F)(F)F)n1ccnc1 [triflumizole] | 44 | 57 | –
Cc1cc(O)no1 [hymexazol] | 5 | 10 | –
CC(C)(C)C(O)C(Oc1ccc(Cl)cc1)n1cncn1 (stereo not shown) [triadimenol] | 45 | 58 | –
